Among the test systems are OVCAR-4 ovarian; MOLT-4 leukemia; MALME-3M melanoma; SNB-75 CNS; RPMI-8226 leukemia; COLO 205 colon; SK-MEL-2 melanoma; HS 578T breast; K-562 leukemia; NCI-H460 lung; UACC-257 melanoma; MCF7 breast; NCI/ADR-RES ovarian; MDA-MB-231 breast; EKVX NSCLC; BT-549 breast; HCC-2998 colon; RXF 393 renal; IGROV1 ovarian; HL-60(TB) leukemia.
Common to all, as to assay: DTP human tumour cell line panel, 48 h

TGI data for ten compounds are collected here from PubChem BioAssay (NCI).

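Interpolation was linear, between the two tested concentrations surrounding the appropriate level; five concentrations were tested over 48 hours in 96-well plates. TGI: concentration producing complete growth inhibition.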

Broadly, the TGI is the concentration giving total growth inhibition. Higher therefore signals less potent growth arrest.

Turning to `C/C=C1/CN2CCC34C5=CC(=O)C(c6cc7c(cc6OC)N(C)C6=C(C(=O)OC)CC8(CC)CCCN9CCC67C98)=CC5=NC23CCC1C4C(=O)OC` (stereo not given), the TGI with OVCAR-4 ovarian was determined as 27.1 µM; in the assay with MOLT-4 leukemia, 6.94 µM; in the assay on MALME-3M melanoma, 28.6 µM; with SNB-75 CNS, 21.6 µM; with RPMI-8226 leukemia, 16.6 µM; in the assay with COLO 205 colon, 22.9 µM. Further, the total growth inhibition concentration (TGI) in the assay on SK-MEL-2 melanoma came out at 30.6 µM; in the assay on HS 578T breast it was 25.6 µM; in the assay with K-562 leukemia, 15.9 µM; in the assay on NCI-H460 lung, 30.1 µM; with UACC-257 melanoma it was 27.1 µM; with MCF7 breast, 22.8 µM. Moreover, the TGI came out at 54.3 µM in the assay with NCI/ADR-RES ovarian; 23.5 µM with MDA-MB-231 breast; 28.1 µM in the assay with EKVX NSCLC; 29.7 µM in the assay on BT-549 breast; 29.5 µM in the assay with HCC-2998 colon; 23.3 µM in the assay on RXF 393 renal. The TGI is 31.9 µM in the assay with IGROV1 ovarian and 4.22 µM in the assay with HL-60(TB) leukemia.
On to `COc1ccc(-c2cn3c(nc4ccccc43)c(C)n2)cc1`, for which the TGI is greater than 100 µM in the assay with OVCAR-4 ovarian; greater than 100 µM with MOLT-4 leukemia; greater than 100 µM in the assay on MALME-3M melanoma; greater than 86.1 µM in the assay with SNB-75 CNS; greater than 100 µM in the assay on RPMI-8226 leukemia; greater than 100 µM with COLO 205 colon. In addition, the TGI in the assay with SK-MEL-2 melanoma, with HS 578T breast, with K-562 leukemia, in the assay on NCI-H460 lung, with UACC-257 melanoma and in the assay on MCF7 breast was greater than 100 µM each time. In addition, the TGI with NCI/ADR-RES ovarian was greater than 100 µM; with MDA-MB-231 breast, greater than 100 µM; with EKVX NSCLC it was greater than 100 µM; in the assay with BT-549 breast, greater than 100 µM; in the assay with HCC-2998 colon it was greater than 100 µM; with RXF 393 renal, greater than 88.9 µM. For the same compound, the TGI in the assay with IGROV1 ovarian and with HL-60(TB) leukemia was greater than 100 µM each time.
Regarding `Cc1cc(C)nc(NC(=S)Nc2cccc(Cl)c2)c1`, the TGI in the assay with OVCAR-4 ovarian, with MOLT-4 leukemia, in the assay on MALME-3M melanoma, in the assay with SNB-75 CNS, in the assay with RPMI-8226 leukemia and in the assay with COLO 205 colon was greater than 100 µM each time. Moreover, the TGI in the assay with SK-MEL-2 melanoma is greater than 100 µM; with HS 578T breast, greater than 100 µM; in the assay with K-562 leukemia, greater than 100 µM; with NCI-H460 lung, greater than 100 µM; in the assay with UACC-257 melanoma, greater than 100 µM; in the assay with MCF7 breast, greater than 58.3 µM. The TGI with NCI/ADR-RES ovarian, in the assay on MDA-MB-231 breast, in the assay on EKVX NSCLC, in the assay on BT-549 breast, with HCC-2998 colon and in the assay with RXF 393 renal was greater than 100 µM throughout. The TGI with IGROV1 ovarian and with HL-60(TB) leukemia was greater than 100 µM in each case.
On to `Nc1ccc(-c2nc3cc(F)ccc3s2)cc1Br`, for which the TGI in the assay with OVCAR-4 ovarian is greater than 100 µM; in the assay on MOLT-4 leukemia, greater than 100 µM; in the assay with MALME-3M melanoma, greater than 100 µM; with SNB-75 CNS, 77.9 µM; in the assay with RPMI-8226 leukemia it was greater than 100 µM; with COLO 205 colon it was greater than 100 µM. Also, the TGI with SK-MEL-2 melanoma was greater than 100 µM; in the assay on HS 578T breast, greater than 100 µM; with K-562 leukemia it was greater than 100 µM; with NCI-H460 lung, greater than 46 µM; with UACC-257 melanoma, greater than 100 µM; in the assay on MCF7 breast it was 0.528 µM. Besides, the concentration for total growth inhibition (TGI) is greater than 100 µM in the assay on NCI/ADR-RES ovarian; greater than 73.2 µM in the assay with MDA-MB-231 breast; greater than 63.6 µM with EKVX NSCLC; greater than 74.1 µM in the assay on BT-549 breast; 0.0345 µM in the assay with HCC-2998 colon; greater than 100 µM with RXF 393 renal. Moreover, the TGI with IGROV1 ovarian is greater than 37.2 µM; in the assay on HL-60(TB) leukemia, greater than 100 µM.
As to `C/C=C/C=C/C1=NN(c2cccc(S(=O)(=O)O)c2)C2(C1)C(Cl)C(=O)N2c1nc2ccccc2s1` (stereo not given), the TGI is 29.2 µM with OVCAR-4 ovarian; greater than 68.5 µM with MOLT-4 leukemia; 32.7 µM with MALME-3M melanoma; 25.9 µM in the assay with SNB-75 CNS; greater than 51.6 µM with RPMI-8226 leukemia; 35.3 µM in the assay on COLO 205 colon. Further, the TGI is 30.2 µM in the assay with SK-MEL-2 melanoma; greater than 90.3 µM in the assay on HS 578T breast; greater than 62.1 µM in the assay on K-562 leukemia; 31.6 µM in the assay on NCI-H460 lung; 33.5 µM in the assay on UACC-257 melanoma; 27 µM in the assay with MCF7 breast. Moreover, the TGI with NCI/ADR-RES ovarian is greater than 82.7 µM; in the assay with MDA-MB-231 breast, 28.9 µM; with EKVX NSCLC it was 35.6 µM; in the assay with BT-549 breast, 34 µM; with HCC-2998 colon it was 31.5 µM; with RXF 393 renal, 24.3 µM. The TGI with IGROV1 ovarian is 25.4 µM; in the assay with HL-60(TB) leukemia it was 33.1 µM.
For the compound `O=C(O)C(F)(OC(F)(F)C(F)(F)C(F)(F)F)C(F)(F)F` (stereo not given), the TGI with OVCAR-4 ovarian, in the assay on MOLT-4 leukemia, in the assay on MALME-3M melanoma, with SNB-75 CNS, in the assay on RPMI-8226 leukemia and in the assay with COLO 205 colon was greater than 100 µM each time. Also, the TGI in the assay on SK-MEL-2 melanoma, with HS 578T breast, with K-562 leukemia, in the assay on NCI-H460 lung, in the assay with UACC-257 melanoma and in the assay on MCF7 breast was greater than 100 µM each time. Besides, the TGI in the assay on NCI/ADR-RES ovarian, in the assay with MDA-MB-231 breast, with EKVX NSCLC, in the assay with BT-549 breast, in the assay with HCC-2998 colon and with RXF 393 renal was greater than 100 µM in each case. Moreover, the TGI in the assay on IGROV1 ovarian and in the assay with HL-60(TB) leukemia was greater than 100 µM in each case.
With `C[C@@]12C[C@@H](c3ccccc3O1)N1CCSC1=N2`, the TGI in the assay with OVCAR-4 ovarian, in the assay with MOLT-4 leukemia, in the assay on MALME-3M melanoma, in the assay on SNB-75 CNS, with RPMI-8226 leukemia and with COLO 205 colon was greater than 100 µM in each case. In addition, the TGI in the assay with SK-MEL-2 melanoma, with HS 578T breast, in the assay on K-562 leukemia, in the assay with NCI-H460 lung, with UACC-257 melanoma and with MCF7 breast was greater than 100 µM throughout. Moreover, the TGI in the assay on NCI/ADR-RES ovarian, in the assay on MDA-MB-231 breast, in the assay with EKVX NSCLC, with BT-549 breast, with HCC-2998 colon and with RXF 393 renal was greater than 100 µM throughout. Moreover, the TGI with IGROV1 ovarian and in the assay with HL-60(TB) leukemia was greater than 100 µM in each case.
For `CCOC(=O)c1c(NS(=O)(=O)c2ccc(Br)cc2)sc2c1CCCC2`, the TGI in the assay on OVCAR-4 ovarian was greater than 100 µM; with MOLT-4 leukemia it was 12.3 µM; in the assay with MALME-3M melanoma, 27.9 µM; with SNB-75 CNS, 12.4 µM; with RPMI-8226 leukemia, 30.5 µM; in the assay with COLO 205 colon, 32.1 µM. Besides, the TGI is 13.5 µM in the assay on SK-MEL-2 melanoma; 35.5 µM in the assay on HS 578T breast; greater than 100 µM in the assay with K-562 leukemia; 13.9 µM with NCI-H460 lung; 47.5 µM in the assay on UACC-257 melanoma; greater than 62.9 µM in the assay with MCF7 breast. The TGI turned out to be 3.72 µM with NCI/ADR-RES ovarian; 16.1 µM with MDA-MB-231 breast; 11 µM in the assay with EKVX NSCLC; 19.4 µM in the assay on BT-549 breast; 32.6 µM with HCC-2998 colon; 6.98 µM in the assay on RXF 393 renal. The concentration for total growth inhibition (TGI) was 8.79 µM with IGROV1 ovarian and greater than 100 µM in the assay on HL-60(TB) leukemia.
Take `CCOC(=O)c1ccc(-c2cccs2)n1C`: the TGI in the assay on OVCAR-4 ovarian, with MOLT-4 leukemia, in the assay with MALME-3M melanoma, in the assay with SNB-75 CNS, in the assay with RPMI-8226 leukemia and in the assay with COLO 205 colon was greater than 100 µM in each case. Besides, the TGI in the assay on SK-MEL-2 melanoma, in the assay on HS 578T breast, in the assay with K-562 leukemia, in the assay with NCI-H460 lung, with UACC-257 melanoma and in the assay on MCF7 breast was greater than 100 µM each time. The TGI with NCI/ADR-RES ovarian, in the assay on MDA-MB-231 breast, in the assay on EKVX NSCLC, in the assay on BT-549 breast, with HCC-2998 colon and in the assay on RXF 393 renal was greater than 100 µM each time. The TGI with IGROV1 ovarian and in the assay on HL-60(TB) leukemia was greater than 100 µM each time.
As to `Cc1cc2c(cc1Cl)SC(NN(C)C)=NS2(=O)=O`, the TGI in the assay with OVCAR-4 ovarian, in the assay on MOLT-4 leukemia, in the assay on MALME-3M melanoma, in the assay with SNB-75 CNS, with RPMI-8226 leukemia and in the assay on COLO 205 colon was greater than 10 µM throughout. Besides, the TGI in the assay on SK-MEL-2 melanoma, in the assay on HS 578T breast, with K-562 leukemia, in the assay with NCI-H460 lung, with UACC-257 melanoma and in the assay with MCF7 breast was greater than 10 µM in each case. Moreover, the TGI in the assay on NCI/ADR-RES ovarian, in the assay on MDA-MB-231 breast, with EKVX NSCLC, in the assay with BT-549 breast, with HCC-2998 colon and in the assay with RXF 393 renal was greater than 10 µM each time. The TGI in the assay on IGROV1 ovarian and in the assay with HL-60(TB) leukemia was greater than 10 µM each time.
